Test results as given in US6511815B1, “Method for quantitating competitive binding of molecules to proteins utilizing fluorescence polarization” (priority 1996, dated 2003).

Biological target: T1, Estrogen receptor (Homo sapiens, UniProt P03372)
T1 construct: purchased PanVera Corporation, Madison, Wis
Test: Competitive fluorescence polarization assay, displacement of fluormone ES1 from ER by environmental compounds
Assay type: binding
Conditions: 1 nM ES1, 10 nM ER, 2.5 hours at room temperature, 360/485 nm
Experimental: Many compounds found in the environment are know to act as natural estrogens. […] The two pesticides were tested individually and together. […] Estrogen receptor was added to each tube at a final concentration of 10 nM. The mixtures were allowed to equilibrate for 2.5 hours at room temperature and the polarization values were read 360/485 nm excitation/emission.

T1 sequence (P03372 whole entry): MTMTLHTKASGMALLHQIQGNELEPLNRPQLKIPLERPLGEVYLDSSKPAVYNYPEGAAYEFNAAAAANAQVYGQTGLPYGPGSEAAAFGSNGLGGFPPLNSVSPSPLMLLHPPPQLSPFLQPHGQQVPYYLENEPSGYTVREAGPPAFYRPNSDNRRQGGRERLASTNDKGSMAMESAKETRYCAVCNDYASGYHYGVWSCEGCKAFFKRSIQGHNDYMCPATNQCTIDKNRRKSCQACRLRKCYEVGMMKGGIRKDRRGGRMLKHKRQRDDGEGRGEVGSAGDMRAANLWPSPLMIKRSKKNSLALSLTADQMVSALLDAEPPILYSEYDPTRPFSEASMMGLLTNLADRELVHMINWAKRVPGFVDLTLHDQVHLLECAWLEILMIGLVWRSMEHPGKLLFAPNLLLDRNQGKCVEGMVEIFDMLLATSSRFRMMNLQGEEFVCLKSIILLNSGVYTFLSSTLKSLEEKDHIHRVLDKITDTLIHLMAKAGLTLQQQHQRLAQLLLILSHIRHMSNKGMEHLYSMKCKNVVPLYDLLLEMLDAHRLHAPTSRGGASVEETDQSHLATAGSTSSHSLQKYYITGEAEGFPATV

SMILES: ClC1=C(Cl)C2(Cl)C3C(Cl)C(Cl)CC3C1(Cl)C2(Cl)Cl (stereo not shown) [chlordane]
- ability to displace fluormone ES1 binding to ER: effectively competed the fluormone ES1 off the estrogen receptor
